According to ChEMBL document CHEMBL5579794, “Improved synthesis and evaluation of preclinical pharmacodynamic parameters of a new monocyclic β-lactam DPI-2016” (Bioorg Med Chem Lett, 2024):

Tests used:
[1] = Plasma protein binding in human at 1 uM incubated for 6 hrs by LC-MS/MS analysis; format: ADME, cell-free
[2] = Stability in monkey plasma at 1 uM measured upto 120 mins by LC-MS/MS analysis; format: ADME, cell-free, Macaca mulatta; details: rhesus monkey, 2 h
[3] = Stability in dog plasma at 1 uM measured upto 120 mins by LC-MS/MS analysis; format: ADME, cell-free, Canis lupus familiaris; details: 2 h
[4] = Stability in rat plasma at 1 uM measured upto 120 mins by LC-MS/MS analysis; format: ADME, cell-free; details: 2 h
[5] = Stability in mouse plasma at 1 uM measured upto 120 mins by LC-MS/MS analysis; format: ADME, cell-free; details: 2 h
[6] = Stability in human liver microsomes at 1 uM measured up to 60 mins in presence of NADPH by LC-MS/MS analysis; format: ADME, Microsome; details: 1 h
[7] = Stability in monkey liver microsomes at 1 uM measured up to 60 mins in presence of NADPH by LC-MS/MS analysis; format: ADME, Macaca mulatta, Microsome; details: rhesus monkey, 1 h
[8] = Stability in dog microsomes at 1 uM measured up to 60 mins in presence of NADPH by LC-MS/MS analysis; format: ADME, Canis lupus familiaris, Liver, Microsome; details: 1 h
[9] = Stability in rat liver microsomes at 1 uM measured up to 60 mins in presence of NADPH by LC-MS/MS analysis; format: ADME, Microsome; details: 1 h
[10] = Stability in mouse liver microsomes at 1 uM measured up to 60 mins in presence of NADPH by LC-MS/MS analysis; format: ADME, Microsome; details: 1 h
[11] = molecular target: Cytochrome P450 3A4 (Homo sapiens, UniProt P08684); experiment: Inhibition of CYP3A4 (unknown origin) at upto 100 uM; format: ADME
Chain of Cytochrome P450 3A4 (P08684 whole entry): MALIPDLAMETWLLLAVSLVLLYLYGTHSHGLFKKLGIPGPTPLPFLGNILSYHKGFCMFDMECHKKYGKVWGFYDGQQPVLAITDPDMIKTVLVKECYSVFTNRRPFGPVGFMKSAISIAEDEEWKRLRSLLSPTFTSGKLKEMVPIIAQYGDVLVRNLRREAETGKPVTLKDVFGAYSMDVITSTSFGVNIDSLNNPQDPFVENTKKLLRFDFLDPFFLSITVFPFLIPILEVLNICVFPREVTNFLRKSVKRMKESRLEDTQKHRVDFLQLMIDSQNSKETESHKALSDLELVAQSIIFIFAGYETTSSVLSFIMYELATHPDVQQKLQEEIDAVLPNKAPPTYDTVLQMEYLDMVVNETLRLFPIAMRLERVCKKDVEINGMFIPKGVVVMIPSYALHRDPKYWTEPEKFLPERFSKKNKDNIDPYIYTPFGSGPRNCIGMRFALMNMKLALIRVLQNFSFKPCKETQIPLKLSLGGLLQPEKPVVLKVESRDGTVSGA

[12] = molecular target: Cytochrome P450 2D6 (Homo sapiens, UniProt P10635); experiment: Inhibition of CYP2D6 (unknown origin) at upto 100 uM; format: ADME
Chain of Cytochrome P450 2D6 (P10635 whole entry): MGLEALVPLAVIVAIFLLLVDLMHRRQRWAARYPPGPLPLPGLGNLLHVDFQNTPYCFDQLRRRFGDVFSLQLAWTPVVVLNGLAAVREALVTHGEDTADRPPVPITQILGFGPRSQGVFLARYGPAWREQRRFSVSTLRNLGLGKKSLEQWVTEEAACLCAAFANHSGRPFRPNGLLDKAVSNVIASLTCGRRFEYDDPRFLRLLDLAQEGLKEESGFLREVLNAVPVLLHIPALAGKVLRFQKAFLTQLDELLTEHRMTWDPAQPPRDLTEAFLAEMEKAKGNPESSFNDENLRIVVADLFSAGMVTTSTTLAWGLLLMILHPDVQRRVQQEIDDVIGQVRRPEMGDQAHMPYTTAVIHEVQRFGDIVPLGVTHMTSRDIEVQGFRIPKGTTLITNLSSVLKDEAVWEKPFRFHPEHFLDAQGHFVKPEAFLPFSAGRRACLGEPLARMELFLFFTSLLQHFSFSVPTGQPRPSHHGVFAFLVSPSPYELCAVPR

[13] = molecular target: Cytochrome P450 2C19 (Homo sapiens, UniProt P33261); experiment: Inhibition of CYP2C19 (unknown origin) at upto 100 uM; format: ADME
Chain of Cytochrome P450 2C19 (P33261 whole entry): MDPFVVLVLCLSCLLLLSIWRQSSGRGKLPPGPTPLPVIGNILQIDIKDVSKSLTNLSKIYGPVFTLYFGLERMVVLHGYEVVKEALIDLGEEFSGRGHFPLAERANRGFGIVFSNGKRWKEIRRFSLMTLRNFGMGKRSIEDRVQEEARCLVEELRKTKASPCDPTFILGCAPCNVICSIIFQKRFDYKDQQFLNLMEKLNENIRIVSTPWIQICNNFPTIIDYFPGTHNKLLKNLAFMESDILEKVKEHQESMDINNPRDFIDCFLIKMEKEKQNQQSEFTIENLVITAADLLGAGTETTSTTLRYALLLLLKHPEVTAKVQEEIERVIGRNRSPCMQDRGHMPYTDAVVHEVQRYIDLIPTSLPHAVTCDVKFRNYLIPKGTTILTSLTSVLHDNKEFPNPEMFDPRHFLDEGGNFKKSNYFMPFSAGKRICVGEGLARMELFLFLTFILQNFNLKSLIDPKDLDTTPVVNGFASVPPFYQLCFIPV

[14] = molecular target: T1, Cytochrome P450 2C8 (Homo sapiens, UniProt P10632); experiment: Inhibition of CYP2C8 (unknown origin) at upto 100 uM; format: ADME
T1 sequence (P10632 whole entry): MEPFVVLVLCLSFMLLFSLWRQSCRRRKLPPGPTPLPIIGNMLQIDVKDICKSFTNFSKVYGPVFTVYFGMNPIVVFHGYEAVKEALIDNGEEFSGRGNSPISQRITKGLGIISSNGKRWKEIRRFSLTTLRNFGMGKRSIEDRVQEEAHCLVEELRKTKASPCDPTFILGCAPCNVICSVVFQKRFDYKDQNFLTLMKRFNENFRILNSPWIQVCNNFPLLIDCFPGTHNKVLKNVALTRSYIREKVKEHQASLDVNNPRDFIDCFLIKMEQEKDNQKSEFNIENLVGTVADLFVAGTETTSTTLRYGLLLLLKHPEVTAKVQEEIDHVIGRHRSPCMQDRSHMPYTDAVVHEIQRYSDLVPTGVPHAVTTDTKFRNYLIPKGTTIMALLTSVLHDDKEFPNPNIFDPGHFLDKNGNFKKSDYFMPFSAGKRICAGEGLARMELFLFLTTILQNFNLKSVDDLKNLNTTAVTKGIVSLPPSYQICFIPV

[15] = molecular target: Cytochrome P450 2C9 (Homo sapiens, UniProt P11712); experiment: Inhibition of CYP2C9 (unknown origin) at upto 100 uM; format: ADME
Chain of Cytochrome P450 2C9 (P11712 whole entry): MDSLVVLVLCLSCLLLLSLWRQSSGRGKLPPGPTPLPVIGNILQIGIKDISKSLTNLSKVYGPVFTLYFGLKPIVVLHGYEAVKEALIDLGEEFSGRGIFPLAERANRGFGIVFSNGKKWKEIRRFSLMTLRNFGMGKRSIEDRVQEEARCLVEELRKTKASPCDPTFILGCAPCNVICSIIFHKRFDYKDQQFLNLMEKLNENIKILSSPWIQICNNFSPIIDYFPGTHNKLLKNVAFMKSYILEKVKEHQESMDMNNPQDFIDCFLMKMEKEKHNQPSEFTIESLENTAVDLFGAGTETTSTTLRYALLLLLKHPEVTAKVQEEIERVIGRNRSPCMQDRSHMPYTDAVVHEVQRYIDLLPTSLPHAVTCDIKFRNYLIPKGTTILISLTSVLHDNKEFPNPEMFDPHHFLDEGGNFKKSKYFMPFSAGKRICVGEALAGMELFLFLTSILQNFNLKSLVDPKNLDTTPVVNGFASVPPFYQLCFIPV

[16] = molecular target: T2, Cytochrome P450 2B6 (Homo sapiens, UniProt P20813); experiment: Inhibition of CYP2B6 (unknown origin) at upto 100 uM; format: ADME
T2 sequence (P20813 whole entry): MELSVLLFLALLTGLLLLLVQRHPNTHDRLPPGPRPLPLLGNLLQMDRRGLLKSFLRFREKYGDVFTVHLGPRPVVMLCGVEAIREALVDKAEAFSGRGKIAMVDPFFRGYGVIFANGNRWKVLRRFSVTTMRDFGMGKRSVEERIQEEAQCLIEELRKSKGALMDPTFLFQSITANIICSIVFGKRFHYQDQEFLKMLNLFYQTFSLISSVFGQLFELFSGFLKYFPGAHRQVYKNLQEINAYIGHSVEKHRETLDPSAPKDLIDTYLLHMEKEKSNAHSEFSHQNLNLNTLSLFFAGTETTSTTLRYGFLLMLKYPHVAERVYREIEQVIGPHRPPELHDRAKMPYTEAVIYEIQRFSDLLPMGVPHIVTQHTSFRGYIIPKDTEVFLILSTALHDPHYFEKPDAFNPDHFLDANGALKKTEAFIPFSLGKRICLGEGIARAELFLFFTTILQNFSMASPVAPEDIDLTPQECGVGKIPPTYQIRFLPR

[17] = molecular target: T3, Cytochrome P450 1A2 (Homo sapiens, UniProt P05177); experiment: Inhibition of CYP1A2 (unknown origin) at upto 100 uM; format: ADME
T3 sequence (P05177 whole entry): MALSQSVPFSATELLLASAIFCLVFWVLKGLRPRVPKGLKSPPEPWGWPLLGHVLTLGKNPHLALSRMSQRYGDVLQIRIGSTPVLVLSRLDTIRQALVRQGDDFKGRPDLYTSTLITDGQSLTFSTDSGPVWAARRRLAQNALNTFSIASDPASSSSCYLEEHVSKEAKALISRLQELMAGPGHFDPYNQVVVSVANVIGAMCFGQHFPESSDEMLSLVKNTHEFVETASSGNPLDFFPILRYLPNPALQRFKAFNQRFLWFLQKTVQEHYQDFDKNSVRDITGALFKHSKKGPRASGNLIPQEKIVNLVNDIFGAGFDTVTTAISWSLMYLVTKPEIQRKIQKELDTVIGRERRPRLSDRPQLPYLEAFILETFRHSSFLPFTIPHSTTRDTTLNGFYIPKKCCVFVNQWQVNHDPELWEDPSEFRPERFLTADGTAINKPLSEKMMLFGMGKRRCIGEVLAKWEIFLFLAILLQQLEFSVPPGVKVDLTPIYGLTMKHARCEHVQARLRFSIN

[18] = tested on: Huh-7; experiment: Cytotoxicity against human Huh-7 cells at 300 ug/ml relative to control; format: toxicity, cell-based; details: at 300 µg/mL
[19] = AUC in male Sprague-Dawley rat at 2 mg/kg by LC-MS/MS analysis; format: ADME, organism-based; details: in vivo
[20] = tested on: Pseudomonas aeruginosa; experiment: Antibacterial activity against Pseudomonas aeruginosa infected in BalbC mouse model of Septicaemia infection assessed as survival rate at 128 mg/kg administration starting at 0.5 to 2 hrs post infection and measured after 7 days relative to control; format: functional; details: 168 h, time 7 day
[21] = tested on: HepG2; experiment: Cytotoxicity against human HepG2 cells at upto 300 ug/ml relative to control; format: toxicity, cell-based; details: up to 300 µg/mL
[22] = tested on: Pseudomonas aeruginosa; experiment: Antibacterial activity against Pseudomonas aeruginosa infected in BalbC mouse model of Septicaemia infection assessed as survival rate at 8 mg/kg administered 30 mins post infection and measured after 3 days relative to control; format: functional; details: 72 h, time 3 day
[23] = tested on: Pseudomonas aeruginosa; experiment: Antibacterial activity against Pseudomonas aeruginosa infected in BalbC mouse model of Septicaemia infection assessed as survival rate at 8 mg/kg administered 30 mins post infection and measured after 5 days relative to control; format: functional; details: 120 h, time 5 day

| Compound | Stability [2] | Stability [3] | Stability [4] | Stability [5] | Stability [6] | Stability [7] | Stability [8] | Stability [9] | Stability [10] | inhibition (INH) [11] | inhibition (INH) [12] | inhibition (INH) [13] | inhibition (INH) [14] | inhibition (INH) [15] | inhibition (INH) [16] | inhibition (INH) [17] | Activity [18] [%] | AUC [19] [ng·h/mL] | other results |
| --- | --- | --- | --- | --- | --- | --- | --- | --- | --- | --- | --- | --- | --- | --- | --- | --- | --- | --- | --- |
| C[C@H]1[C@H](NC(=O)/C(=N\OC(C)(C)C(=O)O)c2csc(N)n2)C(=O)N1S(=O)(=O)O [AZTREONAM] | Stable | Stable | Stable | Stable | Stable | Stable | Stable | Stable | Stable | Not Active | Not Active | Not Active | Not Active | Not Active | Not Active | Not Active | 60 | 2410 | Stability ([1]; 6 h, 1 µM): Stable; survival at 128 mg/kg [20]: 90% |
| Cc1sc(N)nc1/C(=N/O[C@@H](COc1ccc(C(=N)N[C@@H]2CCNC2)cc1)C(=O)O)C(=O)N[C@@H]1C(=O)N(OS(=O)(=O)O)C1(C)C | Stable | Stable | Stable | Stable | Stable | Stable | Stable | Stable | Stable | Not Active | Not Active | Not Active | Not Active | Not Active | Not Active | Not Active | 60 | 2790 | fraction unbound at 6 h, 1 µM ([1]; read-out: PPB (converted)): 0.383; Activity [21]: > 80%; survival at 8 mg/kg [22]: 60%; survival at 8 mg/kg [23]: 60% |
